Columns and labels:
[1] = tested on: weeds; assay: Weed control by the pest control sheet in a watermelon crop; assay type: in vivo
Excerpt: (§1) The present invention further provides a method for pest control. Said method may be applied in agriculture, horticulture or in garden maintenance. In agriculture and horticulture said method is applied as follows: subsequent to physically preparing the field and soil for planting, e.g. plowing, fumigating the soil and laying down of an irrigation system, the sheet is spread over the field so as to cover the soil [FIG. II, (1)], and is then secured to the ground. The sheet [FIG. II, (2), (3)] is then punctured at the spot where a seedling is intended to be planted so that a seedling [FIG. II, (4)] may be inserted through the hole [FIG. II, (5)] and planted in the soil. […] When the sheet contains a pesticide in the top layer, then pest control is maintained above the soil, in the area of the plant. This may also help in protecting the fruit/vegetable itself. Said method can be applied in gardens in a similar manner as described above. The sheet and method of the present invention have been applied to a watermelon crop. The experiments were conducted with three different concentrations of herbicide in the bottom layer.

[2] = tested on: watermelon crop; assay: Watermelon crop development under the pest control sheet; assay type: in vivo
Excerpt: as §1

[3] = 0.5 weight % of pesticide in bottom layer of sheet
[4] = 1 weight % of pesticide in bottom layer of sheet
[5] = 2 weight % of pesticide in bottom layer of sheet

CCOc1cc(Oc2ccc(C(F)(F)F)cc2Cl)ccc1[N+](=O)[O-] [Oxyfluorfen, 2-chloro-a,a,a-trifluoro-p-tolyl 3-ethoxy-4-nitrophenyl ether]
100%: Weed control (% of weed control on a scale of 0-100, 100 indicating total prevention of weed emergence) [1, 3] | Weed control (% of weed control on a scale of 0-100, 100 indicating total prevention of weed emergence) [1, 4] | Weed control (% of weed control on a scale of 0-100, 100 indicating total prevention of weed emergence) [1, 5] | Development (% of crop development in comparison to healthy crop on a scale of 0-100, 100 indicating a healthy crop) [2, 3] | Development (% of crop development in comparison to healthy crop on a scale of 0-100, 100 indicating a healthy crop) [2, 4] | Development (% of crop development in comparison to healthy crop on a scale of 0-100, 100 indicating a healthy crop) [2, 5]

Reference: patent publication US20080312086A1, “PEST CONTROL SHEET” (MAKHTESHIM CHEMICAL WORKS LTD., priority 2000, published 2008)
